Assay results reported in paper PMC8155022 (Scientific Reports, 2021).
Where two headings read alike, the source gives them in different places.

Key:
CAR = target: T1, CAR (Homo sapiens, UniProt Q14994); test: nuclear receptor cellular GAL4 reporter assay; type: cell-based; conditions: agonist and antagonist mode; read-out: potency in agonist and antagonist mode
T1 construct: expressed in transfected cells

A2A (h) = target: T2, A2A (h) (Homo sapiens, UniProt P29274); test: Cerep panel; type: binding
T2 construct: purchased Cerep (receptors, ion channels, transporters); Eurofins Panlabs (kinases)
Method: (§1) A panel of 52 different receptors, ion channels and transporters was tested by Cerep, Inc. (Redmond, WA).

beta 1 (h) = target: T3, beta 1 (h) (Homo sapiens, UniProt P08588); test: Cerep panel; type: binding
T3 construct: purchased Cerep (receptors, ion channels, transporters); Eurofins Panlabs (kinases)
Method: as §1

NT1 (h) (NTS1) = target: T4, NT1 (h) (NTS1) (Homo sapiens, UniProt P30989); test: Cerep panel; type: binding
T4 construct: purchased Cerep (receptors, ion channels, transporters); Eurofins Panlabs (kinases)
Method: as §1

[1] = target: T5, mu (h) (MOP) (agonist site) (Homo sapiens, UniProt P35372); test: Cerep panel; type: binding
T5 construct: purchased Cerep (receptors, ion channels, transporters); Eurofins Panlabs (kinases)
Method: as §1

5-HT1A (h) = target: T6, 5-HT1A (h) (Homo sapiens, UniProt P08908); test: Cerep panel; type: binding
T6 construct: purchased Cerep (receptors, ion channels, transporters); Eurofins Panlabs (kinases)
Method: as §1

5-HT2A (h) = target: T7, 5-HT2A (h) (Homo sapiens, UniProt P28223); test: Cerep panel; type: binding
T7 construct: purchased Cerep (receptors, ion channels, transporters); Eurofins Panlabs (kinases)
Method: as §1

A3 = target: T8, A3 (Homo sapiens, UniProt P0DMS8); test: GPCR panel, cAMP or calcium FLIPR assays; type: cell-based
T8 sequence (P0DMS8 1-318): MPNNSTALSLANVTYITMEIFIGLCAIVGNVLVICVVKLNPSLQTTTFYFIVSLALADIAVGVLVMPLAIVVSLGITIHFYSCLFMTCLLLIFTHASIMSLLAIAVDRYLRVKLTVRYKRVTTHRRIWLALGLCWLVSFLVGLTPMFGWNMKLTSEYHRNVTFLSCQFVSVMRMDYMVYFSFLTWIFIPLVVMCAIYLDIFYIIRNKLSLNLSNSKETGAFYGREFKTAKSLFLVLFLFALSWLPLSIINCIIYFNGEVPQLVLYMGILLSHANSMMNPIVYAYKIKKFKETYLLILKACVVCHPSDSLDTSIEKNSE
Method: (§2) 28 GPCRs were evaluated through cAMP or calcium FLIPR assays[67].

CCKA = CCKA (Homo sapiens, UniProt P32238); test: GPCR panel, cAMP or calcium FLIPR assays; type: cell-based
Method: as §2

delta = delta (Homo sapiens, UniProt P41143); test: GPCR panel, cAMP or calcium FLIPR assays; type: cell-based
Method: as §2

M1 = M1 (Homo sapiens, UniProt P11229); test: GPCR panel, cAMP or calcium FLIPR assays; type: cell-based
Method: as §2

cSRC(h) = target: T9, cSRC(h) (Homo sapiens, UniProt P12931); test: Kinase panel; type: biochemical
T9 construct: purchased Cerep (receptors, ion channels, transporters); Eurofins Panlabs (kinases)
Method: (§3) Kinase selectivity was conducted by Eurofins Panlabs Inc (St Charles, MO).

FGFR1(h) = target: T10, FGFR1(h) (Homo sapiens, UniProt P11362); test: Kinase panel; type: biochemical
T10 construct: purchased Cerep (receptors, ion channels, transporters); Eurofins Panlabs (kinases)
Method: as §3

IKKβ(h) = target: T11, IKKβ(h) (Homo sapiens, UniProt O14920); test: Kinase panel; type: biochemical
T11 construct: purchased Cerep (receptors, ion channels, transporters); Eurofins Panlabs (kinases)
Method: as §3

IRAK4(h) = target: T12, IRAK4(h) (Homo sapiens, UniProt Q9NWZ3); test: Kinase panel; type: biochemical
T12 construct: purchased Cerep (receptors, ion channels, transporters); Eurofins Panlabs (kinases)
Method: as §3

Ret(h) = target: T13, Ret(h) (Homo sapiens, UniProt P07949); test: Kinase panel; type: biochemical
T13 construct: purchased Cerep (receptors, ion channels, transporters); Eurofins Panlabs (kinases)
Method: as §3

ROCK-I(h) = target: T14, ROCK-I(h) (Homo sapiens, UniProt Q13464); test: Kinase panel; type: biochemical
T14 construct: purchased Cerep (receptors, ion channels, transporters); Eurofins Panlabs (kinases)
Method: as §3

SAPK4(h) = target: T15, SAPK4(h) (Homo sapiens, UniProt O15264); test: Kinase panel; type: biochemical
T15 construct: purchased Cerep (receptors, ion channels, transporters); Eurofins Panlabs (kinases)
Method: as §3

ZIPK(h) = target: T16, ZIPK(h) (Homo sapiens, UniProt O43293); test: Kinase panel; type: biochemical
T16 construct: purchased Cerep (receptors, ion channels, transporters); Eurofins Panlabs (kinases)
Method: as §3

human whole blood = test: in vitro whole blood assay, IL-17A production; type: cell-based; conditions: human whole blood diluted 1:1; read-out: IC50, inhibition of IL-17A production
dogs = test: chronic dosing up to 9 months in dogs; type: in vivo; conditions: dog, data not shown, reversible
From the text: This is consistent with the reported physiological role of RORγt as a critical molecule in controlling the survival of thymocytes[7],[66]. JNJ-61803534-induced thymocyte apoptosis was reversible and was deemed non-adverse alterations.

[2] = test system: ex vivo stimulated IL-17A production; test: phase 1 single ascending dose study, ex vivo stimulated IL-17A production in whole blood; set-up: species or system human
Method: The sampling was performed up to 120 h post-dose for cohort 1 (10 mg) and cohort 2 (30 mg), and extended to 504 h for cohort 3, 4 and 5.
Whole blood samples were collected on the morning of day 1 at pre-dose and at 1, 2, 6, 12, 24, 48, 96, and 120 h post-dose in Cohorts 1 and 2. For Cohort 3,4, and 5, samples were collected the morning of day 1 at pre-dose and at 2, 6, 12, 24, 48, 120, 312 and 504 h post-dose. Blood samples (1 ml) were drawn into TruCulture tubes (Myriad RBM, Austin, TX) which contained 2 ml of cocktail containing cell culture media and stimulants, then mixed and incubated at 37 °C in a block thermostat for 48 h. The final concentrations of the stimulants in the TruCulture tube incubations were: IL-23 (50 ng/ml), and IL-1β (10 ng/ml), with anti-CD3 and anti-CD28 antibodies at standard concentration as per standard CD3/CD28 TruCulture tubes. Negative control tubes (no stimulants) were also collected at each timepoint. Supernatants were collected after the end of the incubation period and analyzed to determine concentrations of induced IL-17A using a validated immunoassay method (human IL-17A V-plex kit from Meso Scale Discovery).

[3] = test system: human CD4+ T cells under Th17 differentiation; test: in vitro human Th17 differentiation, cytokine production
Method: On day 4, supernatants were analyzed for IL-17A, IL-17F, IL-22 and IFNγ production.
Total CD4^+ T cells were isolated from peripheral blood mononuclear cells (PBMCs) of healthy donors using a CD4^+ T cell Isolation Kit II (Miltenyl Biotec, Auburn, CA), following the manufacturer’s instructions.
In vitro human Th17 and Th1 differentiation
Total CD4+ T cells were isolated from the peripheral blood mononuclear cells (PBMCs) of healthy donors
using a CD4+ T cell Isolation Kit II (Miltenyl Biotec, Auburn, CA), following the manufacturer’s
instructions. Isolated T cells were resuspended in culture medium and added to a 96-well plate at 1×105
beads (prepared using human T cell activation/expansion kit, Miltenyi Biotec) at final concentration of
3x10^6/mL, and cocktail for either Th17 differentiation (10 µg/mL anti-IL-4, 10 µg/mL anti-IFN, 10 ng/mL
IL-1β, 10 ng/mL IL-23, 50 ng/mL IL-6, 3 ng/mL TGFβ and 20 U/mL IL-2), or for Th1 differentiation (10
µg/mL anti-IL-4, 10 ng/mL IL-12, and 20 U/mL IL-2). Cells were cultured at 37°C and 5% CO2 for 3 days.
Supernatants were assayed for accumulated cytokines using MSD multi-spot assay (Meso Scale
Discovery, Rockville, MD) or R&D ELISA kit.

5HT2B = 5HT2B (Homo sapiens, UniProt P41595); test: Cerep panel; type: binding; set-up: purchased Cerep (receptors, ion channels, transporters); Eurofins Panlabs (kinases)
Method: as §1

Sequence of delta (P41143 whole entry): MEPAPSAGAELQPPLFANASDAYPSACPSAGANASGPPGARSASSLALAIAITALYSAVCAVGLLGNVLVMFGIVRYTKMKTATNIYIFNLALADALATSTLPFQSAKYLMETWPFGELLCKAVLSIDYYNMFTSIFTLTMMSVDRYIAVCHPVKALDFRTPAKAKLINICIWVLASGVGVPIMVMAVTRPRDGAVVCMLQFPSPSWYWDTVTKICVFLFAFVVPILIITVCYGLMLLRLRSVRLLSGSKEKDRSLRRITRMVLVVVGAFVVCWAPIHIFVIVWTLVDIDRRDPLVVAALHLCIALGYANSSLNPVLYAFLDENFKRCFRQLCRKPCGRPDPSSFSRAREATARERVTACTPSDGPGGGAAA
T13 sequence (P07949 29-1114): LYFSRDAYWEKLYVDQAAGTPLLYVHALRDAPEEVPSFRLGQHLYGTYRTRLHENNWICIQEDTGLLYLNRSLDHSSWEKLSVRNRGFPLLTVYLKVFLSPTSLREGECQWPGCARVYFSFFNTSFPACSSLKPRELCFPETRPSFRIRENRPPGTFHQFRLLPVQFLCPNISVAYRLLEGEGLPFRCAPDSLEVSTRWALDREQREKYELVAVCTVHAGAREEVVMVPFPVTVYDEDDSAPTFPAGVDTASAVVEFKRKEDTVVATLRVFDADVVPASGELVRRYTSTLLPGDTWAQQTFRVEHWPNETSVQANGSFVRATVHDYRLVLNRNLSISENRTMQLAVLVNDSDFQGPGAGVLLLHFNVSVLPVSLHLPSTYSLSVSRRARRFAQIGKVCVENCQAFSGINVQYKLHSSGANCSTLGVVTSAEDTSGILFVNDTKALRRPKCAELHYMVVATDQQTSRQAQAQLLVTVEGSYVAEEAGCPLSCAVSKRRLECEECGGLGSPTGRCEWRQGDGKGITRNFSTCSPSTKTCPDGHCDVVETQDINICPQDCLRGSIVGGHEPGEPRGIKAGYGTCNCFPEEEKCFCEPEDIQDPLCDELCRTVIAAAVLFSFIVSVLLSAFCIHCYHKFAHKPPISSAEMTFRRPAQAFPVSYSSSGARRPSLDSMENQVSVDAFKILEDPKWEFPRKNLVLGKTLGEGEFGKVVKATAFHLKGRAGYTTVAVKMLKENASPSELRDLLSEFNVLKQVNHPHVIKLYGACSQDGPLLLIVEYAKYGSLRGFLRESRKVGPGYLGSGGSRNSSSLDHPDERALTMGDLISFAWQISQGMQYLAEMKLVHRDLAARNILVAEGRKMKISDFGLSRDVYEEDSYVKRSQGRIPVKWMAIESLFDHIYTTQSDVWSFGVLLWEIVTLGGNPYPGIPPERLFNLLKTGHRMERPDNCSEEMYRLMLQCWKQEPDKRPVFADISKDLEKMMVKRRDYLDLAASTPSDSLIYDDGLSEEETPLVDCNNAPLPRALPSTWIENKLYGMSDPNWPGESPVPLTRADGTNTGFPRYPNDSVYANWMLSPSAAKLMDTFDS
T2 sequence (P29274 whole entry): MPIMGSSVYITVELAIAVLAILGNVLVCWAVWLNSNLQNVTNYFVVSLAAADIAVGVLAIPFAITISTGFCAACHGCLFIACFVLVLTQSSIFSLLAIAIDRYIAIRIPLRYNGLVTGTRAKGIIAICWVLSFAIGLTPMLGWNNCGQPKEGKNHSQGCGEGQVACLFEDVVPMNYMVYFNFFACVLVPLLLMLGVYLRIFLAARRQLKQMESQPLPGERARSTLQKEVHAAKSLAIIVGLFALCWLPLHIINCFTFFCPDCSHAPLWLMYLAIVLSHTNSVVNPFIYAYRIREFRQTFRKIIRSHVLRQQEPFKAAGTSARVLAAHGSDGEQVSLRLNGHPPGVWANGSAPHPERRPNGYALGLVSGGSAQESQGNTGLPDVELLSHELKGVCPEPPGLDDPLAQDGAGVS
T5 sequence (P35372 whole entry): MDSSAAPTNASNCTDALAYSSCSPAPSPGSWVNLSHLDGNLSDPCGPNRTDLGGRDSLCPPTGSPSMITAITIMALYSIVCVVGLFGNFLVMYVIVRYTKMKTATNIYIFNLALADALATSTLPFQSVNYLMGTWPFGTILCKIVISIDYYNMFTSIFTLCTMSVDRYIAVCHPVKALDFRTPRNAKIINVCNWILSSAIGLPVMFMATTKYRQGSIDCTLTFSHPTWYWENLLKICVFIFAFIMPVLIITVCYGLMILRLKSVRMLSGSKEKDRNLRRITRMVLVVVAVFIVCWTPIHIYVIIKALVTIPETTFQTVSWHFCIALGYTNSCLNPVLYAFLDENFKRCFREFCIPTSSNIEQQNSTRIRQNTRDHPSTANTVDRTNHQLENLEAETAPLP
T16 sequence (O43293 whole entry): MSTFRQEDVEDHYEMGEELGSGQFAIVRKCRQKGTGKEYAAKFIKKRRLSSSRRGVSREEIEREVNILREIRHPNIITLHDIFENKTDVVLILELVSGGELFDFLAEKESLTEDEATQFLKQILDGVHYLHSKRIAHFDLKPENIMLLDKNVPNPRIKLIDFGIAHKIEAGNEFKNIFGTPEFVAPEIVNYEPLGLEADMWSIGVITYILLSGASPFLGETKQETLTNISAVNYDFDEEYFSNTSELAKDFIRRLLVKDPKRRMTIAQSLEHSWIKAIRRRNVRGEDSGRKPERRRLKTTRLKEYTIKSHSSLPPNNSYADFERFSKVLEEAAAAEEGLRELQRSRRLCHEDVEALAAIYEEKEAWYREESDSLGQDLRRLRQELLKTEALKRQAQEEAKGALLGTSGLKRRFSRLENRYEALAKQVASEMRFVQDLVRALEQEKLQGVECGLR
T11 sequence (O14920 whole entry): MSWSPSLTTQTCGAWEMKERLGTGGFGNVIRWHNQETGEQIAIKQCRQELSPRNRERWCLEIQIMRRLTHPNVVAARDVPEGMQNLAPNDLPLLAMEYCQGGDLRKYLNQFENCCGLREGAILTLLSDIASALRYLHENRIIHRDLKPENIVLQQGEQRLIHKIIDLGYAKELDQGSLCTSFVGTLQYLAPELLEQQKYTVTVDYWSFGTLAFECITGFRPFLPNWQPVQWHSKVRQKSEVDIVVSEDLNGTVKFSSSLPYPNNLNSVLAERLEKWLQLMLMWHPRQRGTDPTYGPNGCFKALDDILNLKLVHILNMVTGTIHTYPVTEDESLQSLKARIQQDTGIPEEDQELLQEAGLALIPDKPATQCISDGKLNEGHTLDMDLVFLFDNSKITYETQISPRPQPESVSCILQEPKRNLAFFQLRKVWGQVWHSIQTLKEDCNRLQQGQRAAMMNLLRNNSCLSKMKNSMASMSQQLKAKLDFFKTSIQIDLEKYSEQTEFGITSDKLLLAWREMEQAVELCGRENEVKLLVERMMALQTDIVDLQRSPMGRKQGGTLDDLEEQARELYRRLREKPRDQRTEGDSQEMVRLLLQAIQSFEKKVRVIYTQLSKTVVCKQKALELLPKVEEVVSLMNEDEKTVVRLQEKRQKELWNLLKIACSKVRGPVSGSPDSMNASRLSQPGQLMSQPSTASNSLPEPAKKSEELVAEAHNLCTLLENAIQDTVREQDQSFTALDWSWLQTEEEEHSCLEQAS
T3 sequence (P08588 whole entry): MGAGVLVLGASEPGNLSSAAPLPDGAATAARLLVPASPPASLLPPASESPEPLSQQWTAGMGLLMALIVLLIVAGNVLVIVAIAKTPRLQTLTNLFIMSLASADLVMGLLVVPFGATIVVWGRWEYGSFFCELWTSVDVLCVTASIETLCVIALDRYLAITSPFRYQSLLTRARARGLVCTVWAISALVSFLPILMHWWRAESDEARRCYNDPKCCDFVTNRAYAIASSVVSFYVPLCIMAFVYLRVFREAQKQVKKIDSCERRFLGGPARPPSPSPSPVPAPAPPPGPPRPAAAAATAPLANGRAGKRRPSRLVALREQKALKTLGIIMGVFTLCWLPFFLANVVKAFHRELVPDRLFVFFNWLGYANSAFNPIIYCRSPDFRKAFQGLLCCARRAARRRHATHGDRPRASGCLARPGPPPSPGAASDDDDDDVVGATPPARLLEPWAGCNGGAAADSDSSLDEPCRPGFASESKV
T6 sequence (P08908 whole entry): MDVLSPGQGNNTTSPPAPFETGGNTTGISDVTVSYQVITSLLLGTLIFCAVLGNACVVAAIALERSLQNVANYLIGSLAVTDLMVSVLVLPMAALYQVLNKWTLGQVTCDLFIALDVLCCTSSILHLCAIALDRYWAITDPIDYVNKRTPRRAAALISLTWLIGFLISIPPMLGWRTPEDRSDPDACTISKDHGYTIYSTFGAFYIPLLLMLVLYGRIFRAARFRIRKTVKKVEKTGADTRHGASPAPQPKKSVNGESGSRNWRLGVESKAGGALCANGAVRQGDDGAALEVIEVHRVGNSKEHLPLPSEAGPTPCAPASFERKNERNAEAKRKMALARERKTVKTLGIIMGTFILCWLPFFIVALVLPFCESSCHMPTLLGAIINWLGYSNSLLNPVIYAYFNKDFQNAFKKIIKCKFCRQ
T12 sequence (Q9NWZ3 whole entry): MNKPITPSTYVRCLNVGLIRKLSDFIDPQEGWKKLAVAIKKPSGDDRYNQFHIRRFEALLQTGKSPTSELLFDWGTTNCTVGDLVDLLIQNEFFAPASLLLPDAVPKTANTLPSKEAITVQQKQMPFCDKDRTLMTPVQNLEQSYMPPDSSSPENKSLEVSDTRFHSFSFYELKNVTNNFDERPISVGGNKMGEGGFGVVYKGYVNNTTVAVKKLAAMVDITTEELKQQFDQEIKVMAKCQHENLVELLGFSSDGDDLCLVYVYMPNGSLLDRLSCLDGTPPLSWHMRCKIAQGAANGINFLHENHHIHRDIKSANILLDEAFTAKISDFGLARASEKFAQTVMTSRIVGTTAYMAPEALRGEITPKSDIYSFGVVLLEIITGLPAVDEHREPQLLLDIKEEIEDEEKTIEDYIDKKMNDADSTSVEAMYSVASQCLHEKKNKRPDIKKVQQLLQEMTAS

Compound: CC1CCCN1C(=O)c1nc(C(=O)NCC(C)(C)O)sc1-c1ccc(C(O)(C(F)(F)F)C(F)(F)F)c(Cl)c1Cl (centres unmarked) [JNJ-61803534]
- IC50 (CAR): > 1500 nM
- inhibition at 1 µM (A2A (h)): < 10%
- inhibition at 10 µM (A2A (h)): < 10%
- inhibition at 1 µM (beta 1 (h)): < 10%
- inhibition at 10 µM (beta 1 (h)): < 10%
- inhibition at 1 µM (NT1 (h) (NTS1)): < 10%
- inhibition at 10 µM (NT1 (h) (NTS1)): < 10%
- inhibition at 1 µM [1]: < 10%
- inhibition at 10 µM [1]: 12.2%
- inhibition at 1 µM (5-HT1A (h)): < 10%
- inhibition at 10 µM (5-HT1A (h)): < 10%
- inhibition at 1 µM (5-HT2A (h)): < 10%
- inhibition at 10 µM (5-HT2A (h)): < 10%
- EC50 (A3; agonist): > 12.5 µM
- IC50 (A3; antagonist): > 12.5 µM
- EC50 (CCKA; agonist): > 10 µM
- IC50 (CCKA; antagonist): > 10 µM
- EC50 (delta; agonist): > 12.5 µM
- IC50 (delta; antagonist): > 12.5 µM
- EC50 (M1; agonist): > 10 µM
- IC50 (M1; antagonist): > 10 µM
- activity at 1 µM (cSRC(h)): 78%
- activity at 10 µM (cSRC(h)): 80%
- activity at 1 µM (FGFR1(h)): 103%
- activity at 10 µM (FGFR1(h)): 125%
- activity at 1 µM (IKKβ(h)): 75%
- activity at 10 µM (IKKβ(h)): 138%
- activity at 1 µM (IRAK4(h)): 113%
- activity at 10 µM (IRAK4(h)): 112%
- activity at 1 µM (Ret(h)): 107%
- activity at 10 µM (Ret(h)): 104%
- activity at 1 µM (ROCK-I(h)): 108%
- activity at 10 µM (ROCK-I(h)): 110%
- activity at 1 µM (SAPK4(h)): 100%
- activity at 10 µM (SAPK4(h)): 112%
- activity at 1 µM (ZIPK(h)): 113%
- activity at 10 µM (ZIPK(h)): 120%
- IC50 (human whole blood): 230 ± 110 nM
- thymus finding (dogs): increase in medium-sized thymocytes/mitoses
- maximum inhibition of ex vivo stimulated IL-17A production as compared to placebo ([2]; 100 mg single dose, fasted (cohort 3)): 45%
- maximum inhibition of ex vivo stimulated IL-17A production as compared to placebo ([2]; 200 mg single dose (cohort 4)): 54%
- IL-17A inhibition ([2]; 10 and 30 mg doses): did not appear to show a separation from placebo
- IC50 ([3]; read-out: IC50 (95% confidence intervals), IL-17A production): 19 nM
- IC50 ([3]; read-out: IC50 (95% confidence intervals), IL-17F production): 22 nM
- IC50 ([3]; read-out: IC50 (95% confidence intervals), IL-22 production): 27 nM
- inhibition at 1 µM (5HT2B): < 10%
- inhibition at 10 µM (5HT2B): 36.8%
